From patent publication US9428465B2, “Acid ceramidase inhibitors and their use as medicaments” (FONDAZIONE ISTITUTO ITALIANO DI TECHNOLOGIA, priority 2012, dated 2016)

Columns and labels:
[1] = biological target: human acid ceramidase (hAC) (Homo sapiens (Human), UniProt Q13510); assay: Human acid ceramidase (hAC) activity assay, UPLC/MS of lauric acid; format: biochemical; conditions: for IC50: human acid ceramidase, 50 μM N-lauroyl ceramide, pH 4.5
Procedure: Human acid ceramidase (hAC) cDNA was purchased from Open Biosystem (clone ID 3923451) and subcloned in the mammalian expression vector pCDNA3.1, containing the neomycin resistance gene. The cell line HEK293 was transfected with hAC-pCDNA3.1 construct using JetPEI reagent (Polypus Transfection™, Illkirch, FR) following the manufacturer instructions. A stable cell line of hAC-overexpressing HEK293 was generated by selection with G418 (1 mg/ml) and cell clones were derived by limited dilution plating. hAC-expressing clones were analyzed by western blot.
Hek293 cells overexpressing hAC were suspended in 20 mM Tris HCl (pH 7.5) containing 0.32M sucrose, sonicated and centrifuged at 800×g for 15 min at 4° C. The supernatants were centrifuged again at 12,000×g for 30 min at 4° C. The pellets were suspended in phosphate-buffered saline (PBS) and subjected to 2 freeze-thaw cycles at −80° C. The suspensions were centrifuged at 105,000×g for 1 h at 4° C. The supernatants containing hAC were kept at −80° C. until use. Protein concentration was measured using the bicinchoninic acid (BCA) assay (Pierce).
A hAC protein preparation (10 μg) was preincubated with inhibitors (final DMSO concentration 1%) in assay buffer (100 mM sodium phosphate, 0.1% Nonidet P-40, 150 mM NaCl, 3 mM DTT, 100 mM sodium citrate, pH 4.5) for 30 min at 37° C. Reactions were started by the addition of 50 μM N-lauroyl ceramide (Nu-Chek Prep, Elysian, Minn.) and carried on for 30 min at 37° C. Reactions were stopped by addition of a mixture of chloroform/methanol (2:1, vol/vol) containing 1 nmol 11-lauroleic acid (NuChek Prep). The organic phases were collected, dried under nitrogen and analyzed by UPLC/MS (Acquity, Waters) in the negative-ion mode monitoring the reaction product (lauric acid, m/z=199) using 11-lauroleic acid as internal standard.
Lipids were eluted on an Acquity UPLC BEH C18 column (50 mm length, 2.1 mm i.d., 1.7 μm pore size, Waters) column at 0.5 mL-min^−1 for 1.5 min with a gradient of acetonitrile (CH3CN) and water, both containing 0.25% acetic acid and 5 mM ammonium acetate (70% to 100% CH3CN in 0.5 min, 100% CH3CN for 0.5 min, 70% CH3CN for 0.4 min). The column temperature was 40° C. Electrospray ionization (ESI) was in the negative mode, capillary voltage was 1 kV and cone voltage was 50 V. Nitrogen was used as drying gas at a flow rate of 500 L/h and at a temperature of 400° C.
The [M-H]^− ion was monitored in the selected-ion monitoring mode (m/z values: lauric acid 199, 11-lauroleic acid […]). Calibration curves were generated with authentic lauric acid (Nu Check Prep). Inhibition of acid ceramidase activity was calculated as reduction of lauric acid in the samples compared to vehicle controls. IC50 values were calculated by non-linear regression analysis of log [concentration]/inhibition curves using GraphPad Prism 5 (GraphPad Software Inc., CA, USA) applying a standard slope curve fitting.

[2] = biological target: rat acid ceramidase (rAC) (Rattus norvegicus (Rat), UniProt Q6P7S1); assay: Rat acid ceramidase (rAC) enzymatic assay, LC/MS of lauric acid; format: biochemical; conditions: for IC50: rat acid ceramidase, 100 μM N-lauroyl ceramide, pH 4.5
Procedure: A lysosomal rat acid ceramidase (rAC) protein preparation was obtained from cells stably expressing rAC resuspended in 20 mM Tris HCl (pH 7.5) with 0.32 M sucrose. Samples were sonicated and centrifuged at 800×g for 15 min at 4° C. Supernatants were then centrifuged at 12,000×g for 30 min at 4° C. Pellets were re-suspended in PBS pH 7.4 and subjected to 2 freeze-thaw cycles at −80° C. The suspension was finally centrifuged at 105,000×g for 1 hr at 4° C. and the supernatant containing rAC was then used in the enzymatic assay.
r-AC protein samples were pre-incubated with various concentrations of test compounds or vehicle control in 100 mM NaH2PO4/citrate buffer pH 4.5, 0.1% Nonidet P-40, 3 mM DTT for 30 min at 37° C. Samples were incubated with 100 μM N-lauroyl ceramide (Nu-Chek Prep, Elysian, Minn.) at 37° for 30 min. The reaction was stopped by addition of a mixture of chloroform/methanol (2:1 vol/vol) containing 1 nmol of heptadecanoic acid (HDA; NuChek Prep). The organic phases were collected, dried under nitrogen, and analyzed by LC/MS in the negative-ion mode using heptadecanoic acid (HDA) as internal standard (m/z=199 for lauric acid, m/z=269 for HDA). HDA was eluted on an XDB Eclipse C18 column isocratically at 2.2 mL/min for 1 min with a solvent mixture of 95% methanol and 5% water, both containing 0.25% acetic acid, and 5 mM ammonium acetate. The column temperature was 50° C. Electrospray ionization (ESI) was in the negative mode, capillary voltage was 4 kV, and fragmentor voltage was 100 V. Nitrogen was used as drying gas at a flow rate of 13 L/min and at a temperature of 350° C. Nebulizer pressure was set at 60 psi. We monitored [M-H]− in the selected-ion monitoring (SIM) mode using HDA as internal standard.
Inhibition of rAC activity was calculated as a reduction of lauric acid in the samples compared to vehicle controls. Median inhibitory concentration (IC50) values were calculated by non-linear regression analysis of log [concentration]/inhibition curves using. GraphPad Prism 5 (GraphPad Software, Inc., CA, USA) applying a standard slope curve fitting.

SW403 cells = assay: SW403 cell viability, MTT assay; format: cell-based, human; conditions: sub-chronic treatment 72 hrs; compounds 30 μM, 5FU 300 nM
Procedure: Cells were seeded in 12- or 96-well plates in complete medium 24 hrs before treatment and then incubated for 24 hrs (single treatment) or 72 hrs (multiple treatments) with different drug concentrations in media without serum. Cell viability was then evaluated.
Alternatively, cell viability was assessed measuring mitochondrial functionality by the MIT assay, which is based on the reduction of the soluble tetrazolium salt MTT [(3-(4,5-dimethylthiazol-2-yl)-2,5-diphenyltetrazolium bromide] into insoluble formazan by mitochondria. Briefly, after treatment, cells were washed with PBS and incubated with 0.5 mg/ml, MTT for 2 hrs at room temperature, MTT reduction was quantified by absorbance at 570 nm using a UV-visible plate reader.

[3] = read-out: hAC percent inhibition

Sequence of rat acid ceramidase (rAC) (Q6P7S1 142-394): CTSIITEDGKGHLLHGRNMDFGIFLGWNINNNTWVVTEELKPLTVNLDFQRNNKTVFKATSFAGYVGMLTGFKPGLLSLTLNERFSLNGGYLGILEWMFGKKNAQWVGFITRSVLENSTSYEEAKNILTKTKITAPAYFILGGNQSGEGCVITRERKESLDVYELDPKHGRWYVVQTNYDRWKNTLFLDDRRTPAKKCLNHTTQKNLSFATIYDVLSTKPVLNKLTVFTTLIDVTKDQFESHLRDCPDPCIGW
Sequence of rat acid ceramidase (rAC) (Q6P7S1 21-141): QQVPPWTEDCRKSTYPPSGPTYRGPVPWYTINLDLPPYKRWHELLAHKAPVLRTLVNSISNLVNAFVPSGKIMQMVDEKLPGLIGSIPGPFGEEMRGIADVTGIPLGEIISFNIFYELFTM
Sequence of human acid ceramidase (hAC) (Q13510 143-395): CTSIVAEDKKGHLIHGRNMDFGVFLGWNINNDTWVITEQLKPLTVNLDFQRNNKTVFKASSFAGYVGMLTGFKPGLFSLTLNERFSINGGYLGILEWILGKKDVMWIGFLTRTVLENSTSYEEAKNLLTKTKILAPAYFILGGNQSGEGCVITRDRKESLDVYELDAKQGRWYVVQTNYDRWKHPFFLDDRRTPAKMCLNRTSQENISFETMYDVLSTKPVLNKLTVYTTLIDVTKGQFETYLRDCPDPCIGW
Sequence of human acid ceramidase (hAC) (Q13510 22-142): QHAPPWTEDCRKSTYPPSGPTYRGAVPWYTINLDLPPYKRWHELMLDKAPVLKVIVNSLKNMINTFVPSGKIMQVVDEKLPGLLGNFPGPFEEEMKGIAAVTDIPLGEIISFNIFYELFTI

Compound	IC50 [2]	inhibition at 1 µM [1, 3]	other results
CCCCCCNC(=O)n1cc(-c2ccccc2)c(=O)[nH]c1=O [Example 14, N-hexyl-2,4-dioxo-5-phenyl-pyrimidine-1-carboxamide]	–	–	IC50 [1]: 0.155 µM
CCCCCCNC(=O)n1cc(I)c(=O)[nH]c1=O [Example 8, N-hexyl-5-iodo-2,4-dioxo-pyrimidine-1-carboxamide]	0.147 µM	–	–
CCCCCCNC(=O)n1cc(-c2ccc(C)cc2)c(=O)[nH]c1=O [Example 20, N-hexyl-2,4-dioxo-5-(p-tolyl)pyrimidine-1-carboxamide]	–	54%	–
CCCCCCNC(=O)n1cc(-c2ccc(F)cc2)c(=O)[nH]c1=O [Example 18, 5-(4-fluorophenyl)-N-hexyl-2,4-dioxo-pyrimidine-1-carboxamide]	–	74%	–
CCCCCCNC(=O)n1cc(N2CCOCC2)c(=O)[nH]c1=O [Example 12, N-hexyl-5-morpholino-2,4-dioxo-pyrimidine-1-carboxamide]	0.88 µM	–	–
CCCCCCNC(=O)n1cc(N(C)Cc2ccccc2)c(=O)[nH]c1=O [Example 10, 5-(benzyl(methyl)amino)-N-hexyl-2,4-dioxo-pyrimidine-1-carboxamide]	5.5 µM	–	–
O=c1[nH]cc(F)c(=O)[nH]1 [5-fluorouracil, reference compound]	–	–	SW403 cell viability (MTT assay) (SW403 cells): reduced cell viability
CCCCCCNC(=O)n1cc(OC)c(=O)[nH]c1=O [Example 9, N-hexyl-5-methoxy-2,4-dioxo-pyrimidine-1-carboxamide]	1.1 µM	–	–
CCCCCCNC(=O)n1cc(Br)c(=O)n(C(=O)OCC(C)C)c1=O [Example 24, Isobutyl 5-bromo-3-(hexylcarbamoyl)-2,6-dioxo-pyrimidine-1-carboxylate]	–	–	IC50 [1]: 0.014 µM
O=C(NCCCCc1ccccc1)n1ccc(=O)[nH]c1=O [Example 1, 2,4-dioxo-N-(4-phenylbutyl)pyrimidine-1-carboxamide]	–	–	inhibition at 0.3 µM ([2]; at 0.3 μM, read-out: rAC percent inhibition): 65%
CCCCCCNC(=O)n1cc(Br)c(=O)n(C(=O)OC)c1=O [Example 23, Methyl 5-bromo-3-(hexylcarbamoyl)-2,6-dioxo-pyrimidine-1-carboxylate]	–	–	IC50 [1]: 0.27 µM
CCCCCCNC(=O)n1cc(C)c(=O)n(CC2CC2)c1=O [Example 16, 3-(cyclopropylmethyl)-N-hexyl-5-methyl-2,4-dioxo-pyrimidine-1-carboxamide]	0.04 µM	–	–
CCCCCCNC(=O)n1cc(-c2ccc(OC)cc2)c(=O)[nH]c1=O [Example 19, N-hexyl-5-(4-methoxyphenyl)-2,4-dioxo-pyrimidine-1-carboxamide]	–	52%	–
CCCCCCNC(=O)n1cc(-c2ccc3ccccc3c2)c(=O)[nH]c1=O [Example 22, N-Hexyl-5-(2-naphthyl)-2,4-dioxo-pyrimidine-1-carboxamide]	–	64%	–
CCCCCCNC(=O)n1cc(-c2ccc(C(F)(F)F)cc2)c(=O)[nH]c1=O [Example 21, N-hexyl-2,4-dioxo-5-[4-(trifluoromethyl)phenyl]pyrimidine-1-carboxamide]	–	86%	–
O=C(NCCCCCc1ccc(F)cc1)n1ccc(=O)[nH]c1=O [Example 34, N-[5-(4-fluorophenyl)pentyl]-2,4-dioxo-pyrimidine-1-carboxamide]	–	–	inhibition at 0.5 µM ([1]; at 0.5 μM, read-out: hAC percent inhibition): 99%
CCCCCCNC(=O)n1cc(NC)c(=O)[nH]c1=O [Example 11, N-hexyl-5-methylamino-2,4-dioxo-pyrimidine-1-carboxamide]	3.4 µM	–	–
CCCCCCNC(=O)n1cc(Cl)c(=O)[nH]c1=O [Example 3, 5-Chloro-N-hexyl-2,4-dioxo-pyrimidine-1-carboxamide]	0.067 µM	–	–
CCCCCCNC(=O)n1cc(CO)c(=O)[nH]c1=O [Example 7, N-hexyl-5-(hydroxymethyl)-2,4-dioxo-pyrimidine-1-carboxamide]	0.42 µM	–	–
CCCCCCNC(=O)n1cc(N2CCN(C)CC2)c(=O)[nH]c1=O [Example 13, N-hexyl-5-(4-methylpiperazin-1-yl)-2,4-dioxo-pyrimidine-1-carboxamide]	1.4 µM	–	–

Further lines, with some results ahead:

IC50 [2]	inhibition at 1 µM [1, 3]	Compound	other results
–	100%	O=C(NCCCCCc1ccccc1)n1ccc(=O)[nH]c1=O [Example 33, 2,4-dioxo-N-(5-phenylpentyl)pyrimidine-1-carboxamide]	–
–	100%	CCCCCCNC(=O)n1cc(Cl)c(=O)n(C(=O)OCC(C)C)c1=O [Example 30, Isobutyl 5-chloro-3-(hexylcarbamoyl)-2,6-dioxo-pyrimidine-1-carboxylate]	–
–	99%	CCCCCCNC(=O)n1cc(-c2cccnc2)c(=O)[nH]c1=O [Example 31, N-hexyl-2,4-dioxo-5-(3-pyridyl)pyrimidine-1-carboxamide]	–
–	100%	CCCCCCNC(=O)n1cc(-c2ccccc2)c(=O)n(C(=O)OCC(C)C)c1=O [Example 26, Isobutyl 3-(hexylcarbamoyl)-2,6-dioxo-5-phenyl-pyrimidine-1-carboxylate]	–
0.007 µM	–	CCCCCCCCNC(=O)n1cc(C(F)(F)F)c(=O)[nH]c1=O [Example 32, N-octyl-2,4-dioxo-5-(trifluoromethyl)pyrimidine-1-carboxamide]	–
–	96%	CCCCCCNC(=O)n1cc(Br)c(=O)n(C)c1=O [Example 25, 5-Bromo-N-hexyl-3-methyl-2,4-dioxo-pyrimidine-1-carboxamide]	–
